Assay results: ChEMBL document CHEMBL1201862, “PubChem BioAssay data set” (2004)
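These data come from cells grown in 96-well plates and exposed to compound for 48 hours at five concentrations. The concentration for 50% growth inhibition is given as GI50.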 The source made the active and inactive calls. Cut-off read from the data, not from the text of the source: active = GI50 up to about 1.1 µM and inactive = higher.

Legend:
Assay in all cases: NCI anticancer screen, dose series, 48 h
[1] = tested on: MDA-MB-435
[2] = tested on: CCRF-CEM
[3] = tested on: SK-MEL-2
[4] = tested on: SK-OV-3
[5] = tested on: NCI-H23
[6] = tested on: SK-MEL-5
[7] = tested on: RXF 393
[8] = tested on: 786-0
[9] = tested on: Hs-578T
[10] = tested on: RPMI-8226
[11] = tested on: TK-10
[12] = tested on: UO-31
[13] = tested on: PC-3
[14] = tested on: K562
[15] = tested on: NCI/ADR-RES
[16] = tested on: T47D
[17] = tested on: NCI-H226
[18] = tested on: OVCAR-8
[19] = tested on: ACHN
[20] = tested on: NCI-H460

Row | Compound | GI50 [1] | GI50 [2] | GI50 [3] | GI50 [4] | GI50 [5] | GI50 [6] | GI50 [7] | GI50 [8] | GI50 [9] | GI50 [10] | GI50 [11] | GI50 [12] | GI50 [13] | GI50 [14] | GI50 [15] | GI50 [16] | GI50 [17] | GI50 [18] | GI50 [19] | GI50 [20]
1 | Cc1ccc2c(=O)cc(Cc3cccs3)[nH]c2n1 | > 100 µM (inactive) | > 100 µM (inactive) | > 100 µM (inactive) | > 100 µM (inactive) | > 100 µM (inactive) | > 100 µM (inactive) | > 100 µM (inactive) | > 100 µM (inactive) | > 100 µM (inactive) | > 100 µM (inactive) | > 100 µM (inactive) | > 100 µM (inactive) | > 100 µM (inactive) | > 100 µM (inactive) | > 100 µM (inactive) | > 100 µM (inactive) | > 100 µM (inactive) | > 100 µM (inactive) |  | 
2 | N/C(=N/c1ccc(O)cc1)S(=O)O | > 100 µM (inactive) | 89.9 µM (inactive) | > 100 µM (inactive) | 41.5 µM (inactive) | > 100 µM (inactive) | > 100 µM (inactive) | > 100 µM (inactive) | > 100 µM (inactive) | > 100 µM (inactive) | > 100 µM (inactive) | > 100 µM (inactive) | > 100 µM (inactive) | > 100 µM (inactive) | > 100 µM (inactive) | > 100 µM (inactive) | > 100 µM (inactive) | 37.2 µM (inactive) | > 100 µM (inactive) | > 100 µM (inactive) | 
3 | c1ccc(C2=NOC(c3ccccc3)N2C23CC4CC(CC(C4)C2)C3)cc1 (configuration not stated) | > 10 µM (inactive) | > 10 µM (inactive) | > 10 µM (inactive) | > 10 µM (inactive) | > 10 µM (inactive) | > 10 µM (inactive) | > 10 µM (inactive) | > 10 µM (inactive) | > 10 µM (inactive) | > 10 µM (inactive) | > 10 µM (inactive) |  | > 10 µM (inactive) | > 10 µM (inactive) | > 10 µM (inactive) | > 10 µM (inactive) | > 10 µM (inactive) | > 10 µM (inactive) | > 10 µM (inactive) | > 10 µM (inactive)
4 | Cc1ccnc2[nH]c(-c3ccccc3)cc(=O)c12 | 0.1 µM (active) | 0.00589 µM (active) |  | 0.0136 µM (active) | 0.0297 µM (active) | 0.00387 µM (active) | 0.0192 µM (active) | 0.0124 µM (active) | 0.0114 µM (active) | 0.00731 µM (active) | 0.106 µM (active) | 0.0348 µM (active) | 0.00548 µM (active) | 0.00281 µM (active) | 0.00451 µM (active) | 42.5 µM (inactive) | 0.0246 µM (active) | 0.027 µM (active) | 0.0458 µM (active) | 0.00682 µM (active)
5 | Cc1nc(Cl)c(Cl)c(Cl)n1 | 0.531 µM (active) | 0.0109 µM (active) | 0.51 µM (active) | 3.47 µM (inactive) | 0.526 µM (active) | 0.705 µM (active) | 0.495 µM (active) | 0.409 µM (active) | 0.48 µM (active) | < 0.0398 µM (active) | 1.08 µM (active) |  | 0.348 µM (active) | < 0.0113 µM (active) | 0.354 µM (active) | 0.596 µM (active) | 2.59 µM (inactive) | 0.755 µM (active) | 0.324 µM (active) | 1.38 µM (inactive)
6 | O=C(O)/C=C/c1ccc(OS(=O)(=O)O)cc1 | > 100 µM (inactive) |  | > 100 µM (inactive) | > 100 µM (inactive) | > 100 µM (inactive) | > 100 µM (inactive) | 1.49 µM (inactive) | > 100 µM (inactive) | > 100 µM (inactive) | > 100 µM (inactive) | > 100 µM (inactive) | > 100 µM (inactive) | > 100 µM (inactive) | > 100 µM (inactive) | > 100 µM (inactive) | > 100 µM (inactive) | > 100 µM (inactive) | > 100 µM (inactive) | > 100 µM (inactive) | > 100 µM (inactive)
7 | C1=N\c2ccc(cc2)-c2ccc(cc2)/N=C\c2ccc(cc2)OCc2cccc(n2)COc2ccc/1cc2 | > 100 µM (inactive) | 97.7 µM (inactive) | > 100 µM (inactive) | 61.2 µM (inactive) | > 100 µM (inactive) | > 100 µM (inactive) | 42.2 µM (inactive) | > 100 µM (inactive) | 18.2 µM (inactive) | > 100 µM (inactive) |  | > 100 µM (inactive) | > 100 µM (inactive) | > 100 µM (inactive) | 99.3 µM (inactive) | > 100 µM (inactive) | 37 µM (inactive) | 25.1 µM (inactive) | > 100 µM (inactive) | > 100 µM (inactive)
8 | c1cc(NNc2cccc(-c3nnn[nH]3)c2)cc(-c2nnn[nH]2)c1 | > 100 µM (inactive) |  | > 100 µM (inactive) | > 100 µM (inactive) | > 100 µM (inactive) | > 100 µM (inactive) | > 100 µM (inactive) | > 100 µM (inactive) | > 100 µM (inactive) | > 100 µM (inactive) | > 100 µM (inactive) | > 100 µM (inactive) | > 100 µM (inactive) | > 100 µM (inactive) | > 100 µM (inactive) | > 100 µM (inactive) | > 100 µM (inactive) | > 100 µM (inactive) | > 100 µM (inactive) | > 100 µM (inactive)
9 | Cc1nn(C(=O)c2ccc(Cl)cc2)c2c1C(c1ccc(Cl)cc1)SC(=N)N2 (configuration not stated) | > 10 µM (inactive) | > 10 µM (inactive) | > 10 µM (inactive) | > 10 µM (inactive) | > 10 µM (inactive) | > 10 µM (inactive) | > 10 µM (inactive) | > 10 µM (inactive) | > 10 µM (inactive) | > 10 µM (inactive) | > 10 µM (inactive) |  | > 10 µM (inactive) | > 10 µM (inactive) | > 10 µM (inactive) | > 10 µM (inactive) | > 10 µM (inactive) | > 10 µM (inactive) | > 10 µM (inactive) | > 10 µM (inactive)
10 | Cc1cc(C)nc(NS(=O)(=O)c2ccc(NC(=O)c3cccc4c(NNc5ccc(S(=O)(=O)N=C(N)N)cc5)c5ccccc5nc34)cc2)n1 | > 50 µM (inactive) | > 50 µM (inactive) |  | > 50 µM (inactive) | > 50 µM (inactive) | > 50 µM (inactive) | > 50 µM (inactive) | > 50 µM (inactive) | > 50 µM (inactive) | > 50 µM (inactive) | > 50 µM (inactive) | 48.1 µM (inactive) | > 50 µM (inactive) | > 50 µM (inactive) | > 50 µM (inactive) | > 50 µM (inactive) | > 50 µM (inactive) | > 50 µM (inactive) | > 50 µM (inactive) | > 50 µM (inactive)
11 | COc1ccc(NC(=O)CC(=O)N2N=C(N(c3ccccc3)c3ccccc3)CC2c2ccccc2)cc1 (configuration not stated) | > 100 µM (inactive) | > 100 µM (inactive) | > 100 µM (inactive) | > 100 µM (inactive) | > 100 µM (inactive) |  | > 100 µM (inactive) | > 100 µM (inactive) | 98.4 µM (inactive) | > 100 µM (inactive) | > 100 µM (inactive) | > 100 µM (inactive) | > 100 µM (inactive) | > 100 µM (inactive) | > 100 µM (inactive) | > 100 µM (inactive) | > 100 µM (inactive) | > 100 µM (inactive) | > 100 µM (inactive) | 
